Common to all, as to format: cell-based
One experiment concerns E. coli JT 4. As to the kind of experiment: MIC (antibacterial activity) against E. coli JT 4. Conditions: Escherichia coli, JT4.
The test system of the next experiment is E. coli JT 425. As to the kind of experiment: MIC against E. coli JT 425. Conditions: Escherichia coli, JT425.
In a further experiment the test system is E. coli NCTC 10418. Kind of experiment: MIC against E. coli NCTC 10418. Conditions: Escherichia coli, NCTC10418.
Experiment [1] has as its system Ps. aeruginosa NCTC 10662. Kind of experiment: MIC against Ps. aeruginosa NCTC 10662.
The subject of another experiment is Ps. aeruginosa Dalgleish. As to the kind of experiment: MIC against Ps. aeruginosa Dalgleish. Conditions: Pseudomonas aeruginosa; Ps. aeruginosa Dalgleish 10^-2.
Another experiment concerns S. marcescens US 32. Kind of experiment: MIC against S. marcescens US 32. The settings on record: Serratia marcescens, US32.
A further experiment deals with K. aerogenes A. Kind of experiment: MIC against K. aerogenes A. Conditions: Klebsiella aerogenes.
The test system of another experiment is E. cloacae N1. Kind of experiment: MIC against E. cloacae N1. Conditions: Enterobacter cloacae.
In another experiment the test system is P. mirabilis C 977. Kind of experiment: MIC against P. mirabilis C 977. Conditions: Proteus mirabilis, C977.
In the next experiment the test system is P. mirabilis 889. As to the kind of experiment: MIC against P. mirabilis 889. Conditions: Proteus mirabilis.
A further experiment deals with P. morganii. Kind of experiment: MIC against P. morganii. Conditions: Morganella morganii.
In a further experiment the test system is P. rettgeri. Kind of experiment: MIC against P. rettgeri. Conditions: Providencia rettgeri.
The test system of another experiment is B. subtilis. As to the kind of experiment: MIC against B. subtilis. Conditions: Bacillus subtilis.
The subject of a further experiment is S. aureus Oxford. Kind of experiment: MIC against S. aureus Oxford. Conditions: Staphylococcus aureus.
A further experiment relates to S. aureus Russell. As to the kind of experiment: MIC against S. aureus Russell. Conditions: Staphylococcus aureus.
The next experiment concerns N. catarrhalis 1502. As to the kind of experiment: MIC against N. catarrhalis 1502.
In another experiment the test system is S. faecalis I. As to the kind of experiment: MIC against S. faecalis I. The settings on record: Enterococcus faecalis.
For a further experiment, the system named is S. pyogenes CN 10. As to the kind of experiment: MIC against S. pyogenes CN 10. Conditions: Streptococcus pyogenes, CN10.
The mark [2] stands for this setting: Pseudomonas aeruginosa, NCTC10662, Ps. aeruginosa NCTC 10662, read-out: MIC.
[3] abbreviates: Pseudomonas aeruginosa, NCTC10662, Ps. aeruginosa NCTC 10662 10^-2, read-out: MIC.

Each structure is given as a SMILES string. Where a name gives a salt, the structure may show the parent alone. Read-outs that look alike come from different tables or passages of the source. Bounds are passed on as bounds.

Turning to `CO[C@@]1(NC(=O)C(c2ccccc2)P(=O)(O)OC)C(=O)N2[C@@H](C(=O)O)C(C)(C)S[C@@H]21` (stereo partly drawn) [Example 6, 6,α-Methoxy-6,β-(2-O-methylphosphono-2-phenylacetamido)penicillanic acid disodium salt], the MIC came out at 125 µg/mL in the experiment on E. coli JT 4; 50 µg/mL against E. coli JT 425; 50 µg/mL in the experiment with E. coli NCTC 10418; 500 µg/mL in [1] (Ps. aeruginosa NCTC 10662 10^-2); 500 µg/mL in experiment [1] (setting [2]); 250 µg/mL against Ps. aeruginosa Dalgleish. Moreover, the MIC stood at 125 µg/mL with S. marcescens US 32; 12.5 µg/mL in the experiment on K. aerogenes A; 12.5 µg/mL in the experiment on E. cloacae N1; 25 µg/mL against P. mirabilis C 977; 50 µg/mL in the experiment on P. mirabilis 889; 50 µg/mL against P. morganii. Moreover, the minimum inhibitory concentration (MIC) against P. rettgeri was 12.5 µg/mL; in the experiment on B. subtilis it was greater than 500 µg/mL; in the experiment on S. aureus Oxford, greater than 500 µg/mL; in the experiment on S. aureus Russell, greater than 500 µg/mL; in the experiment with N. catarrhalis 1502 it was 0.5 µg/mL; against S. faecalis I, greater than 500 µg/mL. This molecule also had a minimal inhibitory concentration (MIC) in the experiment on S. pyogenes CN 10 greater than 500 µg/mL.
Consider `CO[C@@]1(NC(=O)C(c2ccc(N)cc2)S(=O)(=O)O)C(=O)N2[C@@H](C(=O)O)C(C)(C)S[C@@H]21` (stereo partly drawn) [Example 4, Disodium 6,β-[2-(4-aminophenyl)-2-sulphoacetamido]-6,α-methoxy-penicillanate], for which the minimal inhibitory concentration (MIC) in the experiment on E. coli JT 4 was 10 µg/mL; with E. coli JT 425 (E. coli JT 425, read-out: MIC), 10 µg/mL; with E. coli NCTC 10418 it was 10 µg/mL; in [1] (setting [3]) it was 25 µg/mL; in experiment [1] (setting [2]) it was 25 µg/mL; in the experiment on Ps. aeruginosa Dalgleish, 25 µg/mL. Moreover, the MIC against S. marcescens US 32 is 25 µg/mL; in the experiment on K. aerogenes A, 2.5 µg/mL; against E. cloacae N1, 5 µg/mL; in the experiment on P. mirabilis C 977, 5 µg/mL; with P. mirabilis 889, 10 µg/mL; against P. morganii it was 5 µg/mL. Besides, the minimal inhibitory concentration (MIC) in the experiment with P. rettgeri (P. rettgeri, read-out: MIC) is 6 µg/mL; in the experiment on B. subtilis, greater than 100 µg/mL; with S. aureus Oxford, greater than 100 µg/mL; with S. aureus Russell, greater than 100 µg/mL; against N. catarrhalis 1502, 0.05 µg/mL; against S. faecalis I, greater than 100 µg/mL. Moreover, the MIC in the experiment with S. pyogenes CN 10 was 25 µg/mL.
Take `CO[C@@]1(NC(=O)C(c2ccccc2)S(=O)(=O)O)C(=O)N2[C@@H](C(=O)O)C(C)(C)S[C@@H]21` (stereo partly drawn) [Example 1, Disodium 6,α-methoxy-6,β -(2-phenyl-2-sulphoacetamido) penicillanate]: the minimum inhibitory concentration (MIC) was 25 µg/mL against E. coli JT 4; 10 µg/mL in the experiment on E. coli JT 425 (E. coli JT 425, read-out: MIC); 25 µg/mL with E. coli NCTC 10418; greater than 100 µg/mL in [1] (setting [3]); greater than 100 µg/mL in [1] (setting [2]); 50 µg/mL with Ps. aeruginosa Dalgleish. The minimum inhibitory concentration (MIC) is greater than 100 µg/mL in the experiment with S. marcescens US 32; 2.5 µg/mL in the experiment with K. aerogenes A; 25 µg/mL in the experiment with E. cloacae N1; 5 µg/mL in the experiment on P. mirabilis C 977; 5 µg/mL against P. mirabilis 889; 10 µg/mL against P. morganii. Further, the MIC in the experiment with P. rettgeri (P. rettgeri, read-out: MIC) is 10 µg/mL; in the experiment on B. subtilis, greater than 100 µg/mL; with S. aureus Oxford, greater than 100 µg/mL; against S. aureus Russell it was greater than 100 µg/mL; against S. faecalis I, greater than 100 µg/mL; with S. pyogenes CN 10 it was 50 µg/mL.
On to `CO[C@@]1(NC(=O)C(c2ccc(O)cc2)S(=O)(=O)O)C(=O)N2[C@@H](C(=O)O)C(C)(C)S[C@@H]21` (stereo partly drawn) [Example 8, Disodium 6,β-[2-(4-hydroxyphenyl)-2-sulphoacetamido]-6,α-methoxypenicillanate], for which the minimal inhibitory concentration (MIC) with E. coli JT 4 was determined as 25 µg/mL; in the experiment on E. coli JT 425 (E. coli JT 425, read-out: MIC), 25 µg/mL; against E. coli NCTC 10418 it was 25 µg/mL; in [1] (setting [3]) it was 50 µg/mL; in experiment [1] (setting [2]), 50 µg/mL; in the experiment on Ps. aeruginosa Dalgleish it was 25 µg/mL. For the same molecule, the MIC with S. marcescens US 32 came to 100 µg/mL; in the experiment on K. aerogenes A, 10 µg/mL; with E. cloacae N1, 10 µg/mL; in the experiment with P. mirabilis C 977, 25 µg/mL; in the experiment on P. mirabilis 889, 25 µg/mL; with P. morganii, 25 µg/mL. In addition, the MIC in the experiment with P. rettgeri (P. rettgeri, read-out: MIC) is 10 µg/mL; against B. subtilis, greater than 100 µg/mL; with S. aureus Oxford it was greater than 100 µg/mL; against S. aureus Russell it was greater than 100 µg/mL; in the experiment with N. catarrhalis 1502, 0.2 µg/mL; against S. faecalis I, greater than 100 µg/mL. Besides, it took 25 µg/mL to inhibit growth against S. pyogenes CN 10 (MIC).
Turning to `CO[C@@]1(NC(=O)C(c2ccccc2F)S(=O)(=O)O)C(=O)N2[C@@H](C(=O)O)C(C)(C)S[C@@H]21` (stereo partly drawn) [Example 9, Disodium 6,β-[2-(2-fluorophenyl)-2-sulphoacetamido]-6,α-methoxypenicillanate], the minimum inhibitory concentration (MIC) against E. coli JT 4 was 25 µg/mL; in the experiment on E. coli JT 425 (E. coli JT 425, read-out: MIC), 10 µg/mL; against E. coli NCTC 10418, 10 µg/mL; in [1] (setting [3]), 100 µg/mL; in experiment [1] (setting [2]), greater than 100 µg/mL; in the experiment with Ps. aeruginosa Dalgleish, 100 µg/mL. For the same molecule, the MIC with S. marcescens US 32 is 50 µg/mL; with K. aerogenes A, 2.5 µg/mL; in the experiment on E. cloacae N1, 2.5 µg/mL; against P. mirabilis C 977 it was 5 µg/mL; in the experiment with P. mirabilis 889, 5 µg/mL; with P. morganii, 5 µg/mL. Besides, the MIC in the experiment on P. rettgeri (P. rettgeri, read-out: MIC) was 5 µg/mL; against B. subtilis, 25 µg/mL; in the experiment with S. aureus Oxford it was 25 µg/mL; in the experiment on S. aureus Russell, 50 µg/mL; in the experiment with N. catarrhalis 1502 it was less than 0.02 µg/mL; with S. faecalis I it was greater than 100 µg/mL. Further, the MIC in the experiment on S. pyogenes CN 10 turned out to be 5 µg/mL.

As usually defined, the MIC is the least concentration at which growth counts as inhibited.

The values above are taken from patent US4308259A, “Penicillin derivatives” (Beecham Group Limited, priority 1979, dated 1981).
